Measurements published in patent publication US12343350B2, “Istaroxime-containing intravenous formulation for the treatment of acute heart failure (AHF)” (Windtree Therapeutics, Inc., priority 2019, dated 2025).
Like-named read-outs stand apart in the source and are kept apart here. Marks after values point to notes of the source that are not given here.

What was measured:
SERCA2a [1] = target: T1, SERCA2a (Canis lupus familiaris (Dog) (Canis familiaris), UniProt O46674); test: SERCA2a ATPase activity in heart-derived SR microsomes from normal dog; format: biochemical; conditions: for % increase vs control (Vmax) / Vmax: normal dog SR microsomes; for Vmax: mean ± SD
T1 sequence (O46674 whole entry): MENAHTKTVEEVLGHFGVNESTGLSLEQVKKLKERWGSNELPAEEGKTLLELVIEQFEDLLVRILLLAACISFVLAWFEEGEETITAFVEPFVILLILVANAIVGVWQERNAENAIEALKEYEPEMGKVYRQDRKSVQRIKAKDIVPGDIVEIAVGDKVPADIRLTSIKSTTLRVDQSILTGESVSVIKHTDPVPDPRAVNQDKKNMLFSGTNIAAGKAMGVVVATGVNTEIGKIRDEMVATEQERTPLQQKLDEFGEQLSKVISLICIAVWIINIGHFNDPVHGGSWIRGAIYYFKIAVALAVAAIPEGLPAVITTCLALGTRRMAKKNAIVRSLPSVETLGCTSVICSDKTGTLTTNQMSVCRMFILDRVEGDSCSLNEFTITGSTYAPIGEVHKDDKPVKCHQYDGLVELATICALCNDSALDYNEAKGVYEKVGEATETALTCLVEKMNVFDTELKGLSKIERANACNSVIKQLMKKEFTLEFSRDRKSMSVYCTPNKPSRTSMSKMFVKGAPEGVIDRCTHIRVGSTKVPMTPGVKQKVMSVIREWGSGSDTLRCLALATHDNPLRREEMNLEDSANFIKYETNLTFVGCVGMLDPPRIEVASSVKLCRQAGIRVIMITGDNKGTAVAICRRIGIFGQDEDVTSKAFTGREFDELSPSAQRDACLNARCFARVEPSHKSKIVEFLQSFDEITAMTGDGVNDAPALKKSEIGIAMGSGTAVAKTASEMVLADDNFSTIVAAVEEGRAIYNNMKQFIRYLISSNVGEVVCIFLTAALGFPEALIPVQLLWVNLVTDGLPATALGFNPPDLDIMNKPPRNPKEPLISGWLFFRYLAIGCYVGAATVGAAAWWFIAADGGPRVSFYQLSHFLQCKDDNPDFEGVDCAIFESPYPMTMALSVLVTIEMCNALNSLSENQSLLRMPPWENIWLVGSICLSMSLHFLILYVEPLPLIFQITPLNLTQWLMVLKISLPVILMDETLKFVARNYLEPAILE
Method: (§1) Male beagle dogs were used for obtaining cardiac tissues for SERCA2a-enriched sarcoplasmic reticulum preparations. Healthy dogs were utilized for obtaining the data in Table 3. Chronic heart failure was induced in dogs by multiple intracoronary microembolizations with polystyrene latex microspheres ([…], Polysciences, Warrington, PA, USA) as described previously (see Sabbah H N et al., Am J Physiol. 1991; 260:H1379-84). The experiments were conducted in the General Pharmacology Department of Sigma-Tau, Rome, Italy.
Left ventricle tissues were dissected, homogenized in 4 volumes of 10 mM NaHCO3 (pH 7), 1 mM PMSF, 10 μg/ml Aprotinin and Leupeptin and centrifuged at 12.000 g for 15 minutes, as described in Nediani C. et al. (J Biol Chem. 1996; 271:19066-73). Supernatants were filtered and centrifuged at 100.000 g for 30 min. Contractile proteins were extracted by suspending the pellets with 0.6 M KCl, 30 mM Histidine, pH 7 and further centrifugation at 100.000 g for 30 min. Final pellets were reconstituted with 0.3 M Sucrose, 30 mM Histidine, pH 7.
SERCA2a activity was measured in vitro as ^32P-ATP hydrolysis at different Ca2^+ concentrations (100 to 3000 nM) in the absence and presence of the tested compounds as described previously (see Micheletti R. et al., Am J Card 2007; 99:24A-32A). Increasing concentrations of each compound (from 0.05 to 300 nM) were pre-incubated with 2 μg of microsomes for 5 min at 4° C. in 80 μl of a solution containing 100 mM KCl, 5 mM MgCl2, 1 μM A23187, 20 mM Tris, pH 7.5. Then, 20 μl of 5 mM Tris-ATP containing 50 nCi of ^32P-ATP (3-10 Ci/mmol, Perkin Elmer) was added. The ATP hydrolysis was continued for 15 min at 37° C. and was stopped by acidification with 100 μl of 20% v/v ice-cold perchloric acid. ^32P was separated by centrifugation with activated charcoal (Norit A, SERVA) and the radioactivity was measured. SERCA2a-dependent activity was identified as the portion of total hydrolytic activity inhibited by 10 μM cyclopiazonic acid (see Seidler N W. et al., J Biol Chem. 1989; 264:17816-23).
Dose-response curves were fitted by using a sigmoidal curve fitting software and the maximal velocity (Vmax) activity and the Kd Ca2^+ were calculated (Synergy Software KaleidaGraph 3.6).
The compounds disclosed herein were tested on SERCA2a ATPase activity prepared from normal and failing dogs in a range of concentrations from […]. The effect has been expressed as % increase of the Vmax activity of a control sample run in the absence of compound. Data are mean & SD, where n indicates the number of experiments.

[2] = Acute toxicity (LD50) in mouse; format: in vivo; conditions: Albino Swiss CD-1, in vivo, single administration
Method: Acute toxicity has been determined in the mouse (Albino Swiss CD-1, body weight 30 g). Mice were orally treated, or intravenously injected, with single administration of increasing doses of the test substance to identify the dose causing 50% mortality. Mortality occurred within 30 min after the administration and survival after 24 h. The acute toxicity (LD50) was then assessed.
The acute toxicity of the tested compound PST 3093 was determined in the mouse (Albino Swiss CD-1, body weight 30 g). Compound PST 3093 was orally administered or intravenously injected at increasing doses to identify the dose causing 50% mortality. Mortality occurred within 30 min after the administration and survival after 24 h.

[3] = Plasma levels of istaroxime and its metabolites in patients (HPLC-MS/MS); format: in vivo, human; conditions: for plasma concentration course during the infusion period: 24 h infusion of 0.5 or 1 μg/kg/min istaroxime, Caucasian and Chinese patients
Method: The quantitative determination of PST 2744 and its metabolite PST 2915 in human plasma was determined by the HPLC-MS/MS method that included a mobile phase of 70:30 acetonitrile/water, 1 mL/L 1M formic acid, and 1 mL/L 5M ammonium acetate. The flow rate was 1 mL/min, and the chromatographic separation was by reversed phase HPLC (Column: SYNERGI 4μ POLAR-RP80A 150×4.6 mm equipped with a Security-guard Phenomenex Polar-RP 4×3 mm). Detection was performed by MS/MS, and the acquisition mode was Multiple Reaction Monitoring (MRM).
The quantitative determination of istaroxime metabolies PST 2922 and PST 3093 in human plasma was also measured by the HPLC-MS/MS method. In this case, the mobile phase was 50:50 H2 O/CH3 CN (v/v) and 500 μL/L 98-100% HCOOH. The flow rate was 1 mL/min and chromatographic separation was done by reversed-phase HPLC (Column: Phenomenex Phenyl hexyl, 150×4.6 mm, equipped with a Phenomenex phenyl propyl guard-cartridge) under isocratic conditions. Detection was performed by MS/MS (376.0→282.0 amu for PST2922, 378.0→284.0 amu for PST 3093 and 362.0→268.0 amu for PST 3418, IS).

dog renal Na,K-ATPase = dog renal Na,K-ATPase (Canis lupus familiaris (Dog) (Canis familiaris), UniProt P50997); test: Inhibition of dog renal Na,K-ATPase activity (32P-ATP); format: biochemical
Method: Kidneys were sliced and the outer medulla was dissected, pooled and suspended (1 g/10 ml) in a sucrose-histidine solution, containing 250 mM sucrose, 30 mM histidine and 5 mM EDTA, pH 7.2 and homogenized. The homogenate was centrifuged at 6.000 g for 15 min, the supernatant was decanted and centrifuged at 48.000 g for 30 min. The pellet was suspended in the sucrose-histidine buffer and incubated for 20 min with a sodium-dodecyl-sulphate (SDS) solution dissolved in a gradient buffer, containing 25 mM imidazole and 1 mM EDTA, pH 7.5. […] The pellet was suspended in the gradient buffer.
Increasing concentrations of the standard ouabain, or tested compound, were incubated with 0.3 μg of purified dog kidney enzyme for 10 min at 37° C. in 120 μl final volume of a medium containing 140 mM NaCl, 3 mM MgCl2, 50 mM Hepes-Tris, 3 mM ATP at a pH 7.5. Then, 10 μl of incubation solution containing 10 mM KCl and 20 nCi of ^32P-ATP (3-10 Ci/mmol, Perkin Elmer) was added, and the reaction was continued for 15 min at 37° C. The reaction was then stopped by acidification with 20% v/v ice-cold perchloric acid. ^32P was separated by centrifugation with activated Charcoal (Norit A, Serva) and the radioactivity was measured. The inhibitory activity was expressed as percent of the control samples carried out in the absence of ouabain or tested compound.

SERCA2a [4] = target: T1, SERCA2a; test: SERCA2a ATPase activity in SR preparations from failing dog; format: biochemical; conditions: data not shown
Method: as §1, with “Italy. […]” for “Italy.”
SERCA2a activity was measured in vitro as ^32P-ATP hydrolysis at different Ca2^+ concentrations (100 to 3000 nM) in the absence and presence of the tested compounds as described previously (see Micheletti R. et al., Am J Card 2007; 99:24A-32A). […] The ATP hydrolysis was continued for 15 min at 37° C. and was stopped by acidification with 100 μl of 20% v/v ice-cold perchloric acid. ^32P was separated by centrifugation with activated charcoal (Norit A, SERVA) and the radioactivity was measured. […]
Dose-response curves were fitted by using a sigmoidal curve fitting software and the maximal velocity (Vmax) activity and the Kd Ca2^+ were calculated (Synergy Software KaleidaGraph 3.6). […]

Compound	% increase vs control (Vmax) (SERCA2a [1]; 0.1 nM compound)	% increase vs control (Vmax) (SERCA2a [1]; 10 nM compound)	LD50 at 24 h ([2]; iv)	LD50 at 24 h ([2]; os (oral))	plasma concentration course during the infusion period [3]	average plasma level ([3]; at 48 hours, 1 μg/kg/min istaroxime infusion)	average plasma level ([3]; at 48 hours, Caucasian patients, 0.5 μg/kg/min istaroxime infusion)	average plasma level ([3]; at 48 hours, Chinese patients, 0.5 μg/kg/min istaroxime infusion)	average plasma concentration ([3]; at 70 hours, or 46 hours post-infusion)	average plasma concentration ([3]; by the end of the 24 h istaroxime infusion period (0.5 or 1 μg/kg/min))	IC50 (dog renal Na,K-ATPase)	SERCA2a activation (SERCA2a [4])	Vmax (SERCA2a [1]; 0.1 nM compound)	Vmax (SERCA2a [1]; 10 nM compound)	SERCA2a activity stimulation (SERCA2a [1]; normal dog SR vesicles, 0.1 nM and 10 nM)	plasma levels ([3]; at 48 hours)	plasmatic level ([3]; following time points, whole duration of the infusion)	concentration at 3 h ([3]; human, plasma, intravenous, at 3 hour time point of infusion, read-out: plasmatic level)	IC50 (dog renal Na,K-ATPase; purified dog kidney enzyme, 37° C., read-out: IC50, inhibition of dog renal Na,K-ATPase)
C[C@]12CCC(=NOCC(=O)O)CC1[C@H](O)CC1C2CC[C@]2(C)C(=O)CCC12 (stereo partly drawn) [PST 3093, (E,Z)-[(6-beta-hydroxy-17-oxoandrostan-3-ylidene)amino]oxyacetic acid]	25** %	19** %	> 250 mg/kg	> 200 mg/kg	continue to accumulate	about 21.2 ng/ml	about 25.02 ng/ml	about 12.5 ng/ml	exceeding 10 ng/mL	exceeding 60 ng/mL	> 100000 nM	–	–	–	–	–	–	–	–
C[C@]12CCC(=NOCCN)C[C@@H]1C(=O)C[C@@H]1[C@@H]2CC[C@]2(C)C(=O)CC[C@@H]12 [Istaroxime, (3Z,5a)-3-[(2-aminoethoxy)imino]androstane-6,17-dione]	14* %	20** %	29 to 32 mg/kg	200 mg/kg	remain relatively constant	–	–	–	–	–	–	particularly evident	1.423 ± 0.123 μmol/min/mg prot	1.505 ± 0.111 μmol/min/mg prot	significantly stimulated	not detectable	about 8 ng/ml	~10 ng/mL	140 nM
